The values below come from US10533015B1, “Opioid receptor antagonist prodrugs” (Nirsum Laboratories, Inc., priority 2019, dated 2020).

Series [1] is described as follows: Plasma stability assay, rat plasma. In kind it is in vitro ADME. Particulars: 10 μM, 37° C. How it is done: Plasma stability determination of the test compounds in rat, dog, cynomolgus monkey and human plasma is performed using HPLC-MS. For rat, incubations are carried out in 96-well polypropylene plates in 5 aliquots of 70 μL each (one for each time point). […] Five time points are analyzed (0, 15, 120, 480 and 1440 min). For dog, monkey and human, test compounds (2 μM, final solvent concentration 1%) were also incubated at 37° C. and analyzed at five time points (0, 10, 30, 60 and 120 min). All incubations are performed in duplicates. The samples are analyzed by HPLC-MS. The percentage of parent compound remaining after incubation in plasma is determined.

Where [2] appears, read: heating temp. 60 °C, obs. temp. 25 °C.
[3] abbreviates: heating temp. 40 °C, obs. temp. 40 °C.

Like-named read-outs stand apart in the source and are kept apart here.

With `C=C1CC[C@@]2(O)C3Cc4ccc(OC(=O)OCCCCCCCCCCCCC)c5c4[C@@]2(CCN3CC2CC2)[C@H]1O5` [Compound 30, (4aS,7aS,12bS)-3-(cyclopropylmethyl)-4a-hydroxy-7-methylene-2,3,4,4a,5,6,7,7a-octahydro-1H-4,12-methanobenzofuro[3,2-e]isoquinolin-9-yl tridecyl carbonate], the “% remaining at time point” value in series [1] (0 min) was found to be 100%; in series [1] (15 min) it was 65.7%; in series [1] (120 min), 40.3%; in series [1] (480 min), 30.5%; in series [1] (1440 min) it was 22.2%. Moreover, the “Approximate Solubility (mg/mL) in Excipient: Cottonseed oil” value (“Approximate Solubility … Cottonseed oil” for short) under setting [2] was in the range of 252.5 to 404.06 mg/mL. The “Approximate Solubility (mg/mL) in Excipient: Sesame oil” value (shortened to “Approximate Solubility … Sesame oil”) under setting [2] is 252.55 to 398.6 mg/mL. In addition, under setting [3], the “Equilibrium solubility (mg/mL) Water” value is listed as less than 0.001 mg/mL.

`C=C1CC[C@@]2(O)C3Cc4ccc(OC(=O)CCCCCCC/C=C\CCCCCCCC)c5c4[C@@]2(CCN3CC2CC2)[C@H]1O5` [Compound 36, (4aS,7aS,12bS)-3-(cyclopropylmethyl)-4a-hydroxy-7-methylene-2,3,4,4a,5,6,7,7a-octahydro-1H-4,12-methanobenzofuro[3,2-e]isoquinolin-9-yl oleate]: the “% remaining at time point” value was 100% in series [1] (0 min); 74.4% in series [1] (15 min); 66.3% in series [1] (120 min); 39.8% in series [1] (480 min); 19.1% in series [1] (1440 min). Also, the “Approximate Solubility (mg/mL) in Excipient: Castor oil” value (Castor oil, heating temp. 40 °C, obs. temp. 40 °C) is more than 217 mg/mL. Also, the “Approximate Solubility … Cottonseed oil” value runs as follows: under setting [3], more than 418.7 mg/mL; under setting [2], more than 407 mg/mL. The “Approximate Solubility (mg/mL) in Excipient: Ethanol” value (Ethanol, heating temp. 40 °C, obs. temp. 40 °C) was in the range of 20 to 30 mg/mL. Moreover, the “Approximate Solubility … Sesame oil” value is given as more than 411.6 mg/mL under setting [3] and more than 408 mg/mL under setting [2].

Consider `CCCCCCCCCCCCCCCCCCCC(=O)Oc1ccc2c3c1O[C@H]1C(=O)CC[C@@]4(O)C(C2)N(CC2CC2)CC[C@]314` [Compound 50, (4aS,7aR,12bS)-3-(cyclopropylmethyl)-4a-hydroxy-7-oxo-2,3,4,4a,5,6,7,7a-octahydro-1H-4,12-methanobenzofuro[3,2-e]isoquinolin-9-yl iconsanoate], for which the “% remaining at time point” value in series [1] (0 min) stood at 100%; in series [1] (15 min) it was 114.5%; in series [1] (120 min), 102.7%; in series [1] (480 min), 83.3%; in series [1] (1440 min), 73.9%. Moreover, under setting [2], the “Approximate Solubility … Cottonseed oil” value was less than 51 mg/mL. In addition, the “Approximate Solubility … Sesame oil” value under setting [2] is less than 52 mg/mL. Under setting [3], the “Equilibrium solubility (mg/mL) Water” value is less than 0.001 mg/mL.

On to `CCCCCCCCCCCCCCCCCCCCCC(=O)Oc1ccc2c3c1O[C@H]1C(=O)CC[C@@]4(O)C(C2)N(CC2CC2)CC[C@]314` [Compound 51, (4aS,7aR,12bS)-3-(cyclopropylmethyl)-4a-hydroxy-7-oxo-2,3,4,4a,5,6,7,7a-octahydro-1H-4,12-methanobenzofuro[3,2-e]isoquinolin-9-yl docosanoate], for which the “% remaining at time point” value in series [1] (0 min) amounted to 100%; in series [1] (15 min), 107.4%; in series [1] (120 min) it was 105.3%; in series [1] (480 min), 88.2%; in series [1] (1440 min), 92.7%. For the same compound, the “Approximate Solubility … Cottonseed oil” value under setting [2] is recorded as less than 50 mg/mL. In addition, the “Approximate Solubility … Sesame oil” value under setting [2] is given as less than 46 mg/mL. Moreover, under setting [3], the “Equilibrium solubility (mg/mL) Water” value is recorded as less than 0.001 mg/mL.

As to `CCCCC/C=C\C/C=C\CCCCCCCC(=O)Oc1ccc2c3c1O[C@H]1C(=O)CC[C@@]4(O)C(C2)N(CC2CC2)CC[C@]314` [Compound 53, (4aS,7aR,12bS)-3-(cyclopropylmethyl)-4a-hydroxy-7-oxo-2,3,4,4a,5,6,7,7a-octahydro-1H-4,12-methanobenzofuro[3,2-e]isoquinolin-9-yl (9Z,12Z)-octadeca-9,12-di.enoate], the “% remaining at time point” value in series [1] (0 min) was 100%; in series [1] (15 min) it was 46.85%; in series [1] (120 min) it was 19.6%; in series [1] (480 min) it was 7.3%; in series [1] (1440 min) it was 1.9%. Under setting [2], the “Approximate Solubility … Cottonseed oil” value was more than 408.5 mg/mL. Also, the “Approximate Solubility … Sesame oil” value was more than 401.9 mg/mL under setting [2] and more than 406.3 mg/mL (heating temp. 60 °C, obs. temp. 40 °C).

For `CCCCCCCCCCCCCCCCCC(=O)Oc1ccc2c3c1O[C@H]1C(=O)CC[C@@]4(O)C(C2)N(CC2CC2)CC[C@]314` [Compound 54, (4aS,7aR,12bS)-3-(cyclopropylmethyl)-4a-hydroxy-7-oxo-2,3,4,4a,5,6,7,7a-octahydro-1H-4,12-methanobenzofuro[3,2-e]isoquinolin-9-yl stearate], the “% remaining at time point” value was found to be 100% in series [1] (0 min); 98.8% in series [1] (15 min); 62.4% in series [1] (120 min); 45.6% in series [1] (480 min); 19.4% in series [1] (1440 min). Moreover, the “Approximate Solubility … Cottonseed oil” value under setting [2] is given as less than 51 mg/mL. Also, the “Approximate Solubility … Sesame oil” value under setting [2] is recorded as less than 50 mg/mL. Under setting [3], the “Equilibrium solubility (mg/mL) Water” value is less than 0.001 mg/mL.

For `CCCCCCCCCCCCCC(=O)Oc1ccc2c3c1O[C@H]1C(=O)CC[C@@]4(O)C(C2)N(CC2CC2)CC[C@]314` [Compound 57, (4aS,7aR,12bS)-3-(cyclopropylmethyl)-4a-hydroxy-7-oxo-2,3,4,4a,5,6,7,7a-octahydro-1H-4,12-methanobenzofuro[3,2-e]isoquinolin-9-yl tetradecanoate], the “% remaining at time point” value is recorded as 100% in series [1] (0 min); 10.5% in series [1] (15 min); 3.2% in series [1] (120 min); 1.2% in series [1] (480 min); 0% in series [1] (1440 min). In addition, the “Approximate Solubility … Cottonseed oil” value under setting [2] is reported as more than 423.7 mg/mL. Moreover, the “Approximate Solubility … Sesame oil” value under setting [2] is on record as more than 417.3 mg/mL. For the same compound, the “Equilibrium solubility (mg/mL) Water” value under setting [3] is reported as less than 0.001 mg/mL.

Take `CCCCCCCCCCCCCCC(=O)Oc1ccc2c3c1O[C@H]1C(=O)CC[C@@]4(O)C(C2)N(CC2CC2)CC[C@]314` [Compound 58, (4aS,7aR,12bS)-3-(cyclopropylmethyl)-4a-hydroxy-7-oxo-2,3,4,4a,5,6,7,7a-octahydro-1H-4,12-methanobenzofuro[3,2-e]-isoquinolin-9-yl pentadecanoate]: the “% remaining at time point” value was 100% in series [1] (0 min); 37% in series [1] (15 min); 20% in series [1] (120 min); 2.9% in series [1] (480 min); 1.8% in series [1] (1440 min). Also, under setting [2], the “Approximate Solubility … Cottonseed oil” value fell in the range of 101.8 to 203.6 mg/mL. Moreover, under setting [2], the “Approximate Solubility … Sesame oil” value lay within 99.4 to 198.8 mg/mL.
